# “Also recorded” adds a separate entry of the source.
# Experiments:
# [1] = biological target: ER-β ligand binding domain (LBD) (Homo sapiens (Human), UniProt Q92731); assay: Ligand binding assay of 14m and 12u, ER-β (Example 22A)
# [2] = test system: genes implicated in lipogenesis, lypolysis, anti-oxidant and other related pathways; assay: TaqMan PCR gene expression arrays on tissues of high fat diet mice; format: in vivo, C57BL6 male mice
# Excerpt: RNA extracted from WAT, BAT, liver and muscle were reverse transcribed using cDNA synthesis kit (Applied biosystems, Foster city, CA).
# RNA from liver, muscle, WAT and BAT were applied to these arrays.
# C-26 colon cancer cells = assay: 3H thymidine incorporation, C-26 cells; format: cell-based; details: 3 days treatment
# Experimental: The effects of treatment of an ER-β selective NRBA of this invention on cancer cell proliferation was examined using LNCaP prostate cancer cells and C-26 colon cancer cells. LNCaP or C-26 cells were plated in growth medium in 24 well and 6 well plates, respectively. LNCaP cells were treated for 6 days and C-26 cells were treated for 3 days at the indicated concentration. ^3H thymidine incorporation was measured at the end of treatment as an indicator of cell proliferation.
# [3] = test system: Ang II induced left ventricular hypertrophy; assay: Angiotensin II model, cardiac hypertrophy; format: in vivo, ovariectomized C57/BJ6 and ERβKO mice; details: 21 days
# Experimental: (§1) Thirty, ten week old female ovariectomized C57/BJ6 mice, were obtained from Harlan/Sprague Dawley and were housed in 12 hour on/off lighting and fed rodent chow devoid of soy or most plant products. Ovariectomized ERβKO mice were obtained from Ken Korach, NIEHS. The ERβ mice were originally created by Drs. Smithies, Gustafsson, and colleagues. All mice were identically housed and fed the same chow.
# (§2) This pellet is well documented to produce physiological levels of E2 in the serum of mice.
# At inception and after 21 days, the mice were weighed. Blood pressure was measured 4 times during the 21-day period, using the CODA non-invasive blood pressure measuring system. At 21 days the hearts were stopped in diastole by CdCl2 administration. The hearts were removed and weighed and the ratio of heart per total body weight was determined. Next, the hearts were dissected and the left ventricles were weighed and the ratio of left ventricle per total body weight was determined. […] For comparison ERβ gene-deleted mice were subjected to the same conditions of Ang II±E2 or the 12u compound. For histology, the hearts were and sectioned, and stained with hematoxylin and eosin, or Masson stain (for collagen)
# [4] = test system: Ang II induced hypertension; assay: Angiotensin II model, blood pressure; format: in vivo, ovariectomized C57/BJ6 and ERβKO mice; parameters: Systolic pressure / Diastolic pressure: unit: mmHg; details: for Diastolic pressure / Systolic pressure: Ang II
# Experimental: as §1, with “ERβ gene-deleted (ERβKO or ERβ-KO)” for “ERβKO”
# as §2
# Blood pressure was measured 4 times during the 21-day period, using the CODA non-invasive blood pressure measuring system (Kent Scientific, Torrington, Conn.). Measurements were done by volume pressure recordings of the tail.
# [5] = test system: Ang II induced cardiac fibrosis; assay: Angiotensin II model, cardiac fibrosis; format: in vivo, ovariectomized C57/BJ6 and ERβKO mice
# Experimental: as §1, §2
# Left ventricular tissues were fixed in 4% paraformaldehyde solution. Paraffin-embedded tissue sections (5 um) were stained with Masson's trichrome for the presence of interstitial collagen fiber accumulation indicative of cardiac fibrosis. The ratio of interstitial fibrosis to the total left ventricular area was calculated from 10 randomly selected microscopic fields from each of five sections per heart using NIH imageJ analysis software (n=5 mice per condition). Further quantification of collagen deposition was made by ventricular content of hydroxyproline, a breakdown product of collagen, determined by a modified method of Bergman and Loxley (19). The ventricular tissues were homogenized and hydrolyzed in 6 N HCl at 110° C. for 24 h in a sealed reaction vial. The sample was dried and the residue re-suspended in sterile water. 0.5 ml of chloramine T was added for 5 min, then Ehrlich's reagent (3 ml) was added and the mixture left for 18 h at room temperature. The intensity of the red coloration that developed was measured by a spectrophotometer at 558 nm.
# ARPE-19 cells = assay: Fluorescent detection of intracellular ROS; format: cell-based, Human; details: 150 μM tBH
# Excerpt: Cells were allowed to adhere overnight. […] Removed and washed cells once with HBSS. […] Each drug concentration was done in triplicates.
# [6] = test system: high fat diet induced obesity in already obese mice; assay: High fat diet induced obesity, treatment study (study 3); format: in vivo, C57BL6 male mice
# Experimental: For the treatment obesity study (where the animals were fed with high fat diet for six weeks prior to beginning drug treatment for 18 weeks), MRI scans were performed at weeks 0, 6, 12, 18 and 24.
# As the first two studies were designed to prevent obesity (i.e. animals were fed with a high fat diet and treated simultaneously), a subsequent study was conducted to evaluate the ability of 12u to affect body composition in mice that were already fed with the high fat diet and were obese. Mice were divided into three groups with one group fed with normal diet (control) and the other two groups fed with the high fat diet for 6 weeks. […] All the animals were maintained in their respective diets during the entire course of the study.
# [7] = test system: LPS induced THP-1 macrophage cell adhesion to bEND-3 endothelial cells; assay: Macrophage adhesion assay; format: cell-based
# Experimental: To determine the anti-inflammatory effects of ER-β NRBAs in vitro, a macrophage adhesion assay was performed. Macrophages adhere to endothelial cells due to elevated levels of pro-inflammatory cytokines. This principle was used in this assay to determine the effect of one of the ER-NRBAs on bacterial lipopolysaccharide (LPS) induced THP-1 macrophage cell adhesion to bEND-3 endothelial cells.
# [8] = Brown Adipose Tissue, vs high fat diet vehicle, >2-fold, p<0.01
# [9] = Liver, vs high fat diet vehicle, >2-fold, p<0.01
# [10] = White Adipose Tissue, vs high fat diet vehicle, >2-fold, p<0.01
# Chain of ER-β ligand binding domain (LBD) (Q92731 264-498, species assumed): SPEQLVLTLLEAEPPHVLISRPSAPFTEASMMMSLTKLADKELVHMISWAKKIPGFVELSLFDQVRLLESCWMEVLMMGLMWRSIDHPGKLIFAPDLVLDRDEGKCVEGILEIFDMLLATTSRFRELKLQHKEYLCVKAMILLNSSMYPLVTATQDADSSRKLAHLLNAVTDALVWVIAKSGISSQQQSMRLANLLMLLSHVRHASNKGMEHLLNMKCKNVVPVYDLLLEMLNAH
structure (smiles),measurement,setting,value
"N#Cc1cn(-c2ccc(O)cc2)c(=O)c2c(O)cc(O)cc12 [14m, 6,8-dihydroxy-2-(4-hydroxyphenyl)-1-oxo-1,2-dihydroisoquinoline-4-carbonitrile]",Ki,[1],5.35 nM
same,"High fat diet increase in expression of lipogenesis genes (LPL, FASN, SREBP-1, PLTP, Dhcr24)",[2]; BAT and WAT,reversed
same,Ddit3 gene expression Increase/Decrease,[2]; [8],Decrease
same,Dhcr24 gene expression Increase/Decrease,[2]; [8],Decreased
same,ER-β gene expression Increase/Decrease,[2]; [8],Increased
same,GPx-3 gene expression Increase/Decrease,[2]; [8],Increase
same,LPL gene expression Increase/Decrease,[2]; [8],Decrease
same,PLTP gene expression Increase/Decrease,[2]; [8],Decrease
same,UCP-1 gene expression Increase/Decrease,[2]; [8],increase in UCP-1 gene expression; also recorded: Increased
same,CIDEA gene expression Increase/Decrease,[2]; [9],Decrease
same,GPx-3 gene expression Increase/Decrease,[2]; [9],Increase
same,Ddit3 gene expression Increase/Decrease,[2]; [10],Decrease
same,FASN gene expression Increase/Decrease,[2]; [10],Decrease
same,LPL gene expression Increase/Decrease,[2]; [10],Decrease
same,SREBP1 gene expression Increase/Decrease,[2]; [10],Decrease
"O=c1c2c(O)cc(O)cc2c(Br)cn1-c1ccc(O)cc1 [12u, 4-bromo-6,8-dihydroxy-2-(4-hydroxyphenyl)isoquinolin-1(2H)-one]",Growth of C-26 colon cancer cells,C-26 colon cancer cells,significantly inhibited
same,Ang II induced increase in heart size and total heart weight,[3],prevented the increased size
same,Ang II induced left ventricular hypertrophy (LVW/BW),[3]; wildtype but not ERβKO mice,largely prevented; also recorded: prevented Ang II induced cardiac hypertrophy and increased heart size
same,"Ang II induced hypertension, diastolic pressure","[4]; ERβ-KO mice, 21 days",unchanged
same,"Ang II induced hypertension, systolic pressure","[4]; ERβ-KO mice, 21 days",mildly reduced
same,Diastolic pressure,"[4]; ERβKO, 7 days",98
same,Systolic pressure,"[4]; ERβKO, 7 days",143
same,Diastolic pressure,"[4]; ERβKO, 14 days",98
same,Systolic pressure,"[4]; ERβKO, 14 days",147
same,Diastolic pressure,"[4]; ERβKO, 21 days",96
same,Systolic pressure,"[4]; ERβKO, 21 days",146
same,Diastolic pressure,"[4]; ERβKO, time 0",87
same,Systolic pressure,"[4]; ERβKO, time 0",123
same,Diastolic pressure,"[4]; WT, 7 days",88
same,Systolic pressure,"[4]; WT, 7 days",120
same,Diastolic pressure,"[4]; WT, 14 days",87
same,Systolic pressure,"[4]; WT, 14 days",125
same,Diastolic pressure,"[4]; WT, 21 days",86
same,Systolic pressure,"[4]; WT, 21 days",130
same,Diastolic pressure,"[4]; WT, time 0",85
same,Systolic pressure,"[4]; WT, time 0",120
same,Ang II induced hypertension,"[4]; wildtype mice, 21 days",largely prevented; also recorded: prevented Ang II induced cardiac hypertension
same,Ventricular hydroxyproline content,"[5]; WT mice, not ERβKO",significantly inhibited the hydroxyproline content
same,Ang II induced cardiac fibrosis (interstitial collagen),[5]; only in WT mice,significantly inhibited fibrosis; also recorded: prevented
same,Prevention of ROS formation / oxidative stress,ARPE-19 cells,did not seem to have any effect
same,Body weight versus normal diet control mice,[6]; by week 16,not significantly different from normal diet control mice
same,Body fat increase (MRI),"[6]; obese mice, 30 mg/kg/day s.c.",reduced
same,Body weight gain after start of treatment,"[6]; obese mice, 30 mg/kg/day s.c. from week 6",prevented further gains in body weight
same,Adhesion of 3H labeled THP-1 cells to bEND-3 cells,[7],significantly inhibited
